Test results taken from patent publication US9388126B2, “Sigma receptor ligands and methods of modulating cellular protein homeostasis using same” (Drexel University, priority 2012, dated 2016).

How the values were obtained:
[1] = test system: MCF-7, T47D, DU145, PC3, HepG2 and Panc1 cells; assay: LC3BII immunoblot in a range of tumor cell lines; format: cell-based, human; conditions: 10 μM, 24 hours
Experimental: FIG. 36, comprising FIGS. 36A-36C, illustrates Sigma1 antagonist associated autophagy. FIG. 36A, comprises representative images of translocation of GFP-tagged LC3 (LC3-GFP) into autophagosomes in MDA-MB-468 (MDA468) breast adenocarcinoma cells. Only antagonist-treated MDA-MB-468 cells presented LC3-GFP translocation to autophagosomes: […]. […] The images are representative of at least 80 fields for each treatment condition. FIG. 36B is an image of an immunoblot illustrating the finding that formation of GFP-LC3II the formation of GFP-LC3 positive punctae, an indicator of autophagosome formation. Protein extracts from MDA-MB-468 cells stably transfected with and expressing GFP-LC3, treated for 24 hours with 10 μM of the indicated Sigma1 ligand. FIG. 36C comprises images of immunoblots illustrating that increased levels of the microtubule associated protein light chain 3BII isoform (LC3BII) is another broadly used indicator of activated autophagy. […] Legend: MCF-7 (breast adenocarcinoma), T47D (breast adenocarcinoma), DU145 (prostate adenocarcinoma), PC3 (prostate adenocarcinoma), HepG2 (hepatocellular carcinoma), and Panc1 (pancreatic adenocarcinoma).

[2] = test system: MDA-MB-468 and MDA-MB-231 breast adenocarcinoma cells; assay: Poly-ubiquitylated protein immunoblot, breast adenocarcinoma cells; format: cell-based, human; conditions: 10 μM, up to 24 hours, MDA-MB-468
Experimental: FIG. 34A is an image of an immunoblot of MDA-MB-468 breast adenocarcinoma cells treated with 10 μM Sigma1 antagonist (IPAG) for the indicated times, up to 24 hours. Total cell lysates were resolved by SDS-PAGE and immunoblotted with a poly-ubiquitin antibody P4D1. FIG. 34B is an image of an immunoblot of HepG2 hepatocellular carcinoma cells treated for 20 hours with 10 μM of indicated Sigma1 ligands.
FIG. 59, comprising FIGS. 59A-59B, illustrates the finding that the novel Sigma1 ligand JMS-51-58 modulated the ubiquitin proteasome system. FIG. 59A is an image of an immunoblot evaluating the levels of poly-ubiquitylated proteins of MDA-MB-468 breast adenocarcinoma treated for 16 hours with 10 μM of JMS-51-58. FIG. 59B is an image of an immunoblot evaluating the levels of poly-ubiquitylated proteins of MDA-MB-231 breast adenocarcinoma cells treated for 16 hours with 10 μM of JMS-51-58. The levels of poly-ubiquitylated proteins were evaluated by immunoblot.

[3] = test system: MCF-7, T47D and MDA-MB-468 cells; assay: Cell proliferation by Alamar blue reduction, breast adenocarcinoma cultures; format: cell-based, human; conditions: after 4 days of treatment, six drug concentrations
Source text: In vitro cell proliferation was quantitated by Alamar blue reduction. The anti-proliferative effects of six drug concentrations of the indicated drugs were quantitated after 4 days of treatment.

[4] = target: T1, Sigma1-HA-His6 protein associations in MDA-MB-468 cells (Mus musculus, UniProt O55242); assay: Ni-NTA co-purification of Sigma1-HA-His6 associated proteins; format: cell-based; conditions: 10 μM, 12 hours
T1 construct: expressed in transfected cells; host or cells: MDA-MB-468 breast adenocarcinoma cells
T1 sequence (O55242 whole entry): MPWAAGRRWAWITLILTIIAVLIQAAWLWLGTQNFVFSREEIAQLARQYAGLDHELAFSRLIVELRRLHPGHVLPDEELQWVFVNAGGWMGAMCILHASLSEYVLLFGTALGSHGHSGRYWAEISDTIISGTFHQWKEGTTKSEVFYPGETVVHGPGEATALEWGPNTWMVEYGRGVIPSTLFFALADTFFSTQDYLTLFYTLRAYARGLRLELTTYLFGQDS
Source text: FIG. 44, comprising FIGS. 44A-44D, illustrates the finding that p97/VCP is a Sigma1 associated protein. A novel assay was developed to evaluate Sigma1 ligand modulation of Sigma1 functions involving protein-protein interactions. FIG. 44A is an image of an immunoblot confirming expression of p97/VCP and Sigma1-HA-His6 in detergent soluble cell extracts added to Ni-NTA resin (input). FIG. 44B is an image of an immunoblot relating to eluate from a Ni-NTA affinity purified fraction. Co-isolation/co-purification of p97/VCP was accomplished with Sigma1-HA-His6, which was isolated/purified by Ni-NTA. […] FIG. 44C is an image of an immunoblot confirming expression of p97/VCP and Sigma1-HA-His6 in detergent-soluble cell extracts from MDA-MB-468 breast adenocarcinoma cells treated for 12 hours with 10 μM IPAG (Sigma1 putative antagonist); the extracts were added to Ni-NTA resin (input). FIG. 44D is an image of an immunoblot illustrating eluate from a Ni-NTA affinity purified fraction. Co-isolation/co-purification of p97/VCP was accomplished with Sigma1-HA-His6, which was isolated/purified by Ni-NTA. […] Molecular mass is presented in kilodaltons (kDa).
FIG. 45, comprising FIGS. 45A-45B, illustrates the finding that ubiquitylated proteins are bound to Sigma1. A novel assay was developed to evaluate Sigma1 ligand modulation of Sigma functions involving association with ubiquitylated proteins. […]

N=C(Nc1ccc(I)cc1)NC1C2CC3CC(C2)CC1C3 (centres unmarked) [IPAG, 1-(4-iodophenyl)-3-(2-adamantyl)guanidine]
LC3BII levels [1]: salient induction of LC3BII levels
levels of ubiquitylated proteins [2]: increased level of ubiquitylated proteins
inhibition of cell proliferation [3]: inhibited cell proliferation with comparable potencies in all cell lines
Sigma1-associated p97/VCP in Ni-NTA eluate [4]: Lower levels of Sigma1-associated p97/VCP
Sigma1-associated ubiquitylated proteins in Ni-NTA eluate [4]: Increased levels of Sigma1-associated ubiquitylated proteins
